Results as given in patent US20090071883A1 (priority 2007, published 2009).

What was measured:
Erwinia carotovora = type: cell-based
[1] = test system: Cryptosporidium parvum oocysts; settings: pH 7; cited from earlier work

SMILES	mean log cfu Erwinia carotovora (Erwinia carotovora) [log cfu]	approximate CT values for 99% inactivation [1]
[O][Cl+][O-] [chlorine dioxide]	0.0	~78
NCl [monochloramine]	–	~7200
